According to patent publication US11370785B2, “Multicyclic compounds as farnesoid X receptor modulators” (BRISTOL-MYERS SQUIBB COMPANY, priority 2017, dated 2022):

target: T1, human FXR (Homo sapiens, UniProt Q96RI1); assay: transient human FXR/Gal4-luciferase reporter assay; type: cell-based; conditions: Gal4-hFXR reporter in HEK293 cells; read-out: HLE GAL-FXR EC50
T1 construct: expressed in transfected cells; host or cells: HEK293 cells stably carrying a 5xGal4-response-element firefly luciferase reporter, transiently transfected with the pcDNA3.1-Gal4-FXR plasmid
T1 sequence (Q96RI1 262-486 limits assumed): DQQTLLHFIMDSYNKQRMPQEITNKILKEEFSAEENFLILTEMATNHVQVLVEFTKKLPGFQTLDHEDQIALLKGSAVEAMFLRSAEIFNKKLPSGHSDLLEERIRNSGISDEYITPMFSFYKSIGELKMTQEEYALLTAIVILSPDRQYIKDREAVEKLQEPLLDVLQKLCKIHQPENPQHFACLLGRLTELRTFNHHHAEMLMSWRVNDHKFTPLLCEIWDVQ
Procedure: The exemplified compounds of the present invention were tested in the transient human FXR/Gal4-luciferase reporter assay, and assay results were reported in Table 1 together with other analytical data.
A Gal4-hFXR fusion construct reporter system was used as the primary assay to characterize compound activity. A construct including 5 copies of the Gal4 promoter response element upstream of a firefly luciferase reporter cDNA was stably expressed in HEK293 cells. This reporter cell line was maintained in Dulbecco's Modified Eagle's medium (DMEM; Gibco) supplemented with 1% penicillin-streptomycin (P/S) solution, 500 μg/mL Zeocin and 10% charcoal/dextran-treated fetal bovine serum (cs-FBS) at 37° C. in a humidified 5% CO2 atmosphere. Another plasmid was constructed in which the human cytomegalovirus promoter in the pcDNA3.1 vector directs the expression of the cDNA encoding a fusion protein comprised of the DNA binding domain from the Gal4 transcription factor fused to the ligand binding domain from human FXR.
The day prior to transfection, the reporter cells in culture are detached from the plate with trypsin and plated into a T75 flask at a sufficient density to achieve approximately 90% confluence the next morning. The transfection reagents are prepared by separately diluting 25 μg of the pcDNA3.1-Gal4-FXR plasmid into 1.87 mL of Opti-MEM (Thermo-Fisher), and 40 μL of Lipofectamine 2000 (Thermo-Fisher) into 1.87 mL of Opti-MEM, and then adding the diluted DNA solution into the diluted Lipofectamine 2000 solution and incubating at room temperature for 15-20 minutes. The mixture is further diluted with 10 mL of a solution comprised of DMEM, 10% cs-FBS, and 1% P/S immediately prior to transferring to the cells. The maintenance culture media is aspirated from the cells and the final transfection mixture is added before the cells are incubated overnight at 37° C. in a humidified 5% CO2 atmosphere. This protocol can be scaled up, and the transiently transfected cells can be cryopreserved in an assay-ready format.
For compound testing, 100 nL of the compounds (serial dilutions in DMSO) are dispensed with an Echo acoustic dispenser (Labcyte) into the wells of a Corning/Costar clear bottom 384-well white plate. The transfected cells are harvested, counted, and diluted such that 10-25,000 cells in 25 μL are plated into each well of the 384-well compound assay plate. The compound-treated cells are incubated overnight at 37° C. in a humidified 5% CO2 atmosphere. The next morning 25 μL of Steady-Glo (Promega) are added to each well of the plate, the mixture is incubated for 15 min. with shaking, and luminescence is measured on an Envision (Perkin Elmer) plate reader. Background counts from cells treated with DMSO alone are subtracted from all raw counts, and the corrected values are converted to a percentage of the control response attained with 8 μM GW-4064.

Row | SMILES | EC50 [nM]
1 | O=C(O)c1cc(F)c2nc(N3CCC4(CC3)CC(=Cc3c(-c5c(Cl)cccc5Cl)noc3C3CC3)C4)sc2c1 [Example 1, 2-(2-((5-Cyclopropyl-3-(2,6-dichlorophenyl)isoxazol-4-yl)methylene)-7-azaspiro[3.5]nonan-7-yl)-4-fluorobenzo[d]thiazole-6-carboxylic acid] | 41
2 | O=C(O)c1ccc2cc(N3CCC4(CC3)CC(=Cc3c(-c5c(Cl)cccc5Cl)noc3C3CC3)C4)ccc2n1 [Example 2, 6-(2-((5-Cyclopropyl-3-(2,6-dichlorophenyl)isoxazol-4-yl)methylene)-7-azaspiro[3.5]nonan-7-yl)quinoline-2-carboxylic acid] | 47
3 | O=C(O)c1cc(F)c2nc(N3CCC4(CC3)CC(Cc3c(-c5ccccc5C(F)(F)F)noc3C3CC3)C4)sc2c1 [Example 3, 2-(2-((5-Cyclopropyl-3-(2-(trifluoromethyl)phenyl)isoxazol-4-yl)methyl)-7-azaspiro[3.5]nonan-7-yl)-4-fluorobenzo[d]thiazole-6-carboxylic acid] | 85
4 | O=C(O)c1cc(F)c2nc(N3CCC4(CC3)CC(Nc3c(-c5c(Cl)cccc5Cl)noc3C3CC3)C4)sc2c1 [Example 5, 2-(2-((5-Cyclopropyl-3-(2,6-dichlorophenyl)isoxazol-4-yl)amino)-7-azaspiro[3.5]nonan-7-yl)-4-fluorobenzo[d]thiazole-6-carboxylic acid] | 60
5 | O=C(O)c1cc(F)c2nc(N3CCC4(CC3)CC(=Cc3c(C5CC5)nnn3-c3c(Cl)cccc3Cl)C4)sc2c1 [Example 6, 2-(2-((4-Cyclopropyl-1-(2,6-dichlorophenyl)-1H-1,2,3-triazol-5-yl)methylene)-7-azaspiro[3.5]nonan-7-yl)-4-fluorobenzo[d]thiazole-6-carboxylic acid] | 402
6 | O=C(O)c1cc(F)c2nc(N3CCC4(CC3)CC(=Cc3c(C5CC5)cnn3-c3c(Cl)cccc3Cl)C4)sc2c1 [Example 7, 2-(2-((4-Cyclopropyl-1-(2,6-dichlorophenyl)-1H-pyrazol-5-yl)methylene)-7-azaspiro[3.5]nonan-7-yl)-4-fluorobenzo[d]thiazole-6-carboxylic acid] | 201
7 | O=C(O)c1cc(F)c2nc(N3CCC4(CC3)CC(=Cc3c(-c5c(Cl)cccc5Cl)cnn3C3CC3)C4)sc2c1 [Example 8, 2-(2-((1-Cyclopropyl-4-(2,6-dichlorophenyl)-1H-pyrazol-5-yl)methylene)-7-azaspiro[3.5]nonan-7-yl)-4-fluorobenzo[d]thiazole-6-carboxylic acid] | 422
8 | O=C(O)c1cccc(CN2CCC3(CC2)CC(=Cc2c(-c4c(Cl)cccc4Cl)noc2C2CC2)C3)c1 [Example 9, 3-((2-((5-Cyclopropyl-3-(2,6-dichlorophenyl)isoxazol-4-yl)methylene)-7-azaspiro[3.5]nonan-7-yl)methyl)benzoic acid] | 959
9 | Cc1cccc(Cl)c1-c1noc(C2CC2)c1C=C1CC2(CCN(S(=O)(=O)c3ccc(C(=O)O)cc3)CC2)C1 [Example 10, 4-((2-((3-(2-Chloro-6-methylphenyl)-5-cyclopropylisoxazol-4-yl)methylene)-7-azaspiro[3.5]nonan-7-yl)sulfonyl)benzoic acid] | 321

same assay, conditions: Gal4-hFXR reporter in HEK293 cells; relative to 8 μM GW-4064; read-out: FXR EC50

Row | SMILES | EC50 [nM]
10 | O=C(O)c1cc(F)c2nc(N3CCC4(CC3)CC(Cc3c(-c5c(Cl)cccc5Cl)noc3C3CC3)C4)sc2c1 [Example 11] | 44
11 | O=C(O)c1cccc(N2CCC3(CC2)CC(Cc2c(-c4c(Cl)cccc4Cl)noc2C2CC2)C3)n1 [Example 12] | 2190
12 | O=C(O)c1ccc(N2CCC3(CC2)CC(Nc2c(-c4c(Cl)cccc4Cl)noc2C2CC2)C3)nc1 [Example 13] | 1220
13 | O=C(O)c1cccc(N2CCC3(CC2)CC(Nc2c(-c4c(Cl)cccc4Cl)noc2C2CC2)C3)n1 [Example 14] | 1570
14 | O=C(O)c1ccc(N2CCC3(CC2)CC(Nc2c(-c4c(Cl)cccc4Cl)noc2C2CC2)C3)nn1 [Example 15] | 1820
15 | O=C(O)c1cc(F)c2nc(N3C4CCC3CC3(CC(Nc5c(-c6c(Cl)cccc6Cl)noc5C5CC5)C3)C4)sc2c1 (stereo not shown) [Example 16] | 514
16 | O=C(O)c1cc(F)c2nc(N3CCC4(CC3)CC(Nc3c(-c5ccccc5OC(F)(F)F)noc3C3CC3)C4)sc2c1 [Example 18] | 77
17 | Cn1cc(C(=O)O)c2cnc(N3CCC4(CC3)CC(Nc3c(-c5c(Cl)cccc5Cl)noc3C3CC3)C4)nc21 [Example 19] | 305
18 | Cc1cc(C(=O)O)cc2sc(N3CCC4(CC3)CC(=Cc3c(C5CC5)nnn3-c3c(Cl)cccc3Cl)C4)nc12 [Example 20] | 252
19 | O=C(O)c1ccc(N2CCC3(CC2)CC(=Cc2c(C4CC4)nnn2-c2c(Cl)cccc2Cl)C3)nc1 [Example 21] | 5280
20 | O=C(O)c1ccc(N2CCC3(CC2)CC(=Cc2c(C4CC4)cnn2-c2c(Cl)cccc2Cl)C3)nc1 [Example 22] | 4700
21 | O=C(O)c1ccc(N2CCC3(CC2)CC(=Cc2c(-c4c(Cl)cccc4Cl)cnn2C2CC2)C3)nc1 [Example 23] | 4640
22 | Cn1cc(C(=O)O)c2ccc(N3CCC4(CC3)CC(=Cc3c(-c5c(Cl)cccc5Cl)noc3C3CC3)C4)cc21 [Example 24] | 9
23 | O=C(O)c1cc(C(F)(F)F)c2cc(N3CCC4(CC3)CC(=Cc3c(-c5ccccc5OC(F)(F)F)noc3C3CC3)C4)ccc2n1 [Example 25] | 23
24 | O=C(O)c1cc(F)c2nc(N3CCC4(CC3)CC(=Cc3c(-c5ccccc5OC(F)(F)F)noc3C3CC3)C4)sc2c1 [Example 26] | 352
25 | Cn1cc(C(=O)O)c2ccc(N3CCC4(CC3)CC(=Cc3c(-c5ccccc5OC(F)(F)F)noc3C3CC3)C4)cc21 [Example 27] | 21
26 | Cn1cc(C(=O)O)c2ccc(N3CCC4(CC3)CC(=Cc3c(-c5ccccc5OC(F)(F)F)noc3C3CC3)C4)nc21 [Example 28] | 229
27 | O=C(O)c1ccc2cc(N3CCC4(CC3)CC(=Cc3c(-c5ccccc5C(F)(F)F)noc3C3CC3)C4)ccc2n1 [Example 29] | 172
28 | O=C(O)c1cc(C(F)(F)F)c2cc(N3CCC4(CC3)CC(=Cc3c(-c5ccccc5C(F)(F)F)noc3C3CC3)C4)ccc2n1 [Example 30] | 12
29 | O=C(O)c1cc(F)c2nc(N3CCC4(CC3)CC(=Cc3c(-c5ccccc5C(F)(F)F)noc3C3CC3)C4)sc2c1 [Example 31] | 173
30 | O=C(O)c1ccc2cc(N3CCC4(CC3)CC(Cc3c(-c5ccccc5C(F)(F)F)noc3C3CC3)C4)ccc2n1 [Example 32] | 243
31 | O=C(O)c1nc(C(F)(F)F)n2cc(N3CCC4(CC3)CC(=Cc3c(-c5ccccc5C(F)(F)F)noc3C3CC3)C4)ccc12 [Example 33] | 6
32 | O=C(O)c1cc2ccc(N3CCC4(CC3)CC(Cc3c(-c5ccccc5C(F)(F)F)noc3C3CC3)C4)cc2nn1 [Example 34] | 1350
33 | O=C(O)c1cc2ccc(N3CCC4(CC3)CC(Cc3c(-c5ccccc5C(F)(F)F)noc3C3CC3)C4)cc2cn1 [Example 35] | 960
34 | O=C(O)c1cc2ccc(N3CCC4(CC3)CC(=Cc3c(-c5ccccc5C(F)(F)F)noc3C3CC3)C4)cc2nn1 [Example 36] | 878
35 | O=C(O)c1cc2ccc(N3CCC4(CC3)CC(=Cc3c(-c5ccccc5C(F)(F)F)noc3C3CC3)C4)cc2cn1 [Example 37] | 1410
36 | Cn1cc(C(=O)O)c2ccc(N3CCC4(CC3)CC(Cc3c(-c5ccccc5C(F)(F)F)noc3C3CC3)C4)cc21 [Example 38] | 28
37 | Cn1cc(C(=O)O)c2ccc(N3CCC4(CC3)CC(=Cc3c(-c5ccccc5C(F)(F)F)noc3C3CC3)C4)cc21 [Example 39] | 4
